The text below walks through data of PubChem BioAssay (NCI).

Some test systems named below: OVCAR-8 ovarian; M19-MEL melanoma; SNB-75 CNS; HCC-2998 colon; HCT-116 colon; OVCAR-3 ovarian; KM20L2 colon; EKVX NSCLC.
Common to all, as to test: inhibition of tumour cell growth, NCI panel, 48 h

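Five concentrations, 48 hours, 96-well plates. The concentration for full growth arrest is given as TGI.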

With `Cc1ccc(NC(=O)C(=O)CC(=O)c2c(C)n([O-])c3ccccc3[n+]2=O)cc1`, the TGI in the experiment on OVCAR-8 ovarian is 55.8 µM; in the experiment on M19-MEL melanoma it was 36.1 µM; in the experiment on SNB-75 CNS it was 58 µM; in the experiment on HCC-2998 colon, above 100 µM; in the experiment with HCT-116 colon, 37.2 µM; with OVCAR-3 ovarian, 35.1 µM. The TGI is 71.8 µM with KM20L2 colon and 40.9 µM with EKVX NSCLC.

`COc1ccccc1C1c2cc3c(cc2OC(O)(CO)C1C(=O)O)OCO3` (stereo not drawn) (tested in a mixture with another compound): the TGI in the experiment on OVCAR-8 ovarian, in the experiment on M19-MEL melanoma, in the experiment with SNB-75 CNS, in the experiment on HCC-2998 colon, in the experiment on HCT-116 colon and with OVCAR-3 ovarian was above 100 µM each time. Also, the TGI with KM20L2 colon and in the experiment on EKVX NSCLC was above 100 µM each time.

For `CN1CC[C@]2(C)c3cc(O)ccc3CC3CCCC1C32C` (stereo partly drawn), the TGI with OVCAR-8 ovarian, in the experiment with M19-MEL melanoma, in the experiment with SNB-75 CNS, in the experiment with HCC-2998 colon, in the experiment on HCT-116 colon and with OVCAR-3 ovarian was above 100 µM in each case. Also, the TGI in the experiment on KM20L2 colon and in the experiment on EKVX NSCLC was above 100 µM in each case.

Regarding `C=C1C(=O)OC2C=C(CCC(C)=O)C(C)C(OC(C)=O)CC12` (stereo not drawn), the TGI in the experiment with OVCAR-8 ovarian came to 36 µM; with M19-MEL melanoma it was 64.7 µM; with SNB-75 CNS, 24.4 µM; with HCC-2998 colon, 21.5 µM; in the experiment on HCT-116 colon it was 21.2 µM; with OVCAR-3 ovarian, 26 µM. Moreover, the figures for the TGI in the experiment with KM20L2 colon and in the experiment with EKVX NSCLC were 16.4 µM and 26 µM, respectively.

Take `O=C(O)CNS(=O)(=O)c1ccc(NC(=O)CI)cc1`: the TGI in the experiment on OVCAR-8 ovarian was 48.6 µM; in the experiment on M19-MEL melanoma it was above 100 µM; in the experiment on SNB-75 CNS it was 32.2 µM; with HCC-2998 colon, above 100 µM; in the experiment on OVCAR-3 ovarian, 62 µM; in the experiment with KM20L2 colon it was 54.5 µM. In the experiment on EKVX NSCLC, this compound came in with a TGI of 81.6 µM.

As to `c1ccc2cc3[s+]snc3cc2c1`, the TGI in the experiment on OVCAR-8 ovarian, with M19-MEL melanoma, in the experiment with SNB-75 CNS, in the experiment on HCC-2998 colon, in the experiment on HCT-116 colon and in the experiment on OVCAR-3 ovarian was above 100 µM each time. Besides, the TGI in the experiment on KM20L2 colon and in the experiment with EKVX NSCLC was above 100 µM throughout.

In the case of `O=C1CCCC(=O)N1CCc1c[nH]c2ccccc12`, the TGI in the experiment with OVCAR-8 ovarian, in the experiment with M19-MEL melanoma, in the experiment on SNB-75 CNS, in the experiment on HCC-2998 colon, with HCT-116 colon and with OVCAR-3 ovarian was above 100 µM in each case. For the same compound, the TGI in the experiment on KM20L2 colon and with EKVX NSCLC was above 100 µM each time.

Consider `Cc1cc(NS(=O)(=O)c2ccc(NC(=O)c3ccc(Cl)c4c(Nc5ccc(S(=O)(=O)N=C(N)N)cc5)c5ccccc5nc34)cc2)no1`, for which the TGI in the experiment with OVCAR-8 ovarian is above 100 µM; in the experiment on M19-MEL melanoma, above 100 µM; in the experiment on SNB-75 CNS it was 95.6 µM; in the experiment on HCC-2998 colon, 41.6 µM; in the experiment on HCT-116 colon, above 100 µM; with OVCAR-3 ovarian, 83.7 µM. For the same compound, the TGI in the experiment with KM20L2 colon and in the experiment with EKVX NSCLC was above 100 µM in each case.
